Results reported in ChEMBL document CHEMBL1201862, “PubChem BioAssay data set” (2004).
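1) Cells in 96-well plates. 2) Compound, 48 h, 5 concentrations. 3) Linear interpolation between surrounding doses. 4) Unreached endpoint = highest concentration. GI50 marks 50% less growth.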 The source made the active and inactive calls. No stated cut-off is given here; in the data, active = GI50 up to about 1.1 µM and inactive = higher.

What was measured:
Test in all cases: NCI-60 cell line screen, 48 h
CCRF-CEM = test system: CCRF-CEM
SF-539 = test system: SF-539
SK-MEL-28 = test system: SK-MEL-28
SNB-78 = test system: SNB-78
UACC-257 = test system: UACC-257
K562 = test system: K562
TK-10 = test system: TK-10
IGROV-1 = test system: IGROV-1
NCI-H522 = test system: NCI-H522
NCI-H23 = test system: NCI-H23
SK-MEL-2 = test system: SK-MEL-2
SR = test system: SR
XF498 = test system: XF498
HCC 2998 = test system: HCC 2998
OVCAR-5 = test system: OVCAR-5
MOLT-4 = test system: MOLT-4
ACHN = test system: ACHN
KM-20L2 = test system: KM-20L2
HT-29 = test system: HT-29
A498 = test system: A498
HOP-62 = test system: HOP-62
OVCAR-4 = test system: OVCAR-4
SF-295 = test system: SF-295
EKVX = test system: EKVX
HL-60 = test system: HL-60
HOP-92 = test system: HOP-92
RXF 631 = test system: RXF 631
SNB-19 = test system: SNB-19
DMS-273 = test system: DMS-273
RXF 393 = test system: RXF 393
HCT-116 = test system: HCT-116
SK-OV-3 = test system: SK-OV-3
NCI-H460 = test system: NCI-H460
NCI-H226 = test system: NCI-H226
SW-620 = test system: SW-620
A549 = test system: A549
KM12 = test system: KM12
SF-268 = test system: SF-268
LOX IMVI = test system: LOX IMVI
COLO 205 = test system: COLO 205
LXFL 529 = test system: LXFL 529
M19-MEL = test system: M19-MEL
Malme-3M = test system: Malme-3M
CAKI-1 = test system: CAKI-1
HOP-18 = test system: HOP-18
OVCAR-8 = test system: OVCAR-8
U-251 = test system: U-251
786-0 = test system: 786-0
SN12C = test system: SN12C
HCT-15 = test system: HCT-15
UACC-62 = test system: UACC-62
OVCAR-3 = test system: OVCAR-3
DLD-1 = test system: DLD-1
SK-MEL-5 = test system: SK-MEL-5
DMS-114 = test system: DMS-114
SNB-75 = test system: SNB-75
UO-31 = test system: UO-31
M14 = test system: M14
RPMI-8226 = test system: RPMI-8226

## ClC(/N=N/c1ccccc1)=N/Nc1ccccc1
CCRF-CEM
  GI50: > 100 µM (inactive)
SF-539
  GI50: > 100 µM (inactive)
SK-MEL-28
  GI50: > 100 µM (inactive)
SNB-78
  GI50: > 100 µM (inactive)
UACC-257
  GI50: > 100 µM (inactive)
K562
  GI50: 38.3 µM (inactive)
TK-10
  GI50: 21.3 µM (inactive)
IGROV-1
  GI50: > 100 µM (inactive)
NCI-H522
  GI50: 61.9 µM (inactive)
NCI-H23
  GI50: > 100 µM (inactive)
SK-MEL-2
  GI50: > 100 µM (inactive)
SR
  GI50: > 100 µM (inactive)
XF498
  GI50: 40.4 µM (inactive)
HCC 2998
  GI50: 41.8 µM (inactive)
OVCAR-5
  GI50: > 100 µM (inactive)
MOLT-4
  GI50: > 100 µM (inactive)
ACHN
  GI50: 34.8 µM (inactive)
KM-20L2
  GI50: 51.1 µM (inactive)
HT-29
  GI50: > 100 µM (inactive)
A498
  GI50: > 100 µM (inactive)
HOP-62
  GI50: > 100 µM (inactive)
OVCAR-4
  GI50: > 100 µM (inactive)
SF-295
  GI50: 53.8 µM (inactive)
EKVX
  GI50: 96.8 µM (inactive)
HL-60
  GI50: > 100 µM (inactive)
HOP-92
  GI50: > 100 µM (inactive)
RXF 631
  GI50: > 100 µM (inactive)
SNB-19
  GI50: > 100 µM (inactive)
DMS-273
  GI50: 26.6 µM (inactive)
RXF 393
  GI50: > 100 µM (inactive)
HCT-116
  GI50: > 100 µM (inactive)
SK-OV-3
  GI50: > 100 µM (inactive)
NCI-H460
  GI50: > 100 µM (inactive)
NCI-H226
  GI50: > 100 µM (inactive)
SW-620
  GI50: 31.8 µM (inactive)
A549
  GI50: > 100 µM (inactive)
KM12
  GI50: 60.7 µM (inactive)
SF-268
  GI50: 39.2 µM (inactive)
LOX IMVI
  GI50: 58.5 µM (inactive)
COLO 205
  GI50: > 100 µM (inactive)
LXFL 529
  GI50: 28.5 µM (inactive)
M19-MEL
  GI50: > 100 µM (inactive)
Malme-3M
  GI50: > 100 µM (inactive)
CAKI-1
  GI50: 33.6 µM (inactive)
HOP-18
  GI50: 20.8 µM (inactive)
OVCAR-8
  GI50: > 100 µM (inactive)
U-251
  GI50: > 100 µM (inactive)
786-0
  GI50: > 100 µM (inactive)
SN12C
  GI50: > 100 µM (inactive)

## NC(=O)N/N=C(\CC1OC(=O)c2ccccc21)c1ccco1 (stereo unspecified)
CCRF-CEM
  GI50: > 100 µM (inactive)
SF-539
  GI50: > 100 µM (inactive)
SK-MEL-28
  GI50: > 100 µM (inactive)
UACC-257
  GI50: > 100 µM (inactive)
K562
  GI50: > 100 µM (inactive)
TK-10
  GI50: > 100 µM (inactive)
HCT-15
  GI50: > 100 µM
IGROV-1
  GI50: > 100 µM (inactive)
NCI-H522
  GI50: > 100 µM (inactive)
NCI-H23
  GI50: > 100 µM (inactive)
SK-MEL-2
  GI50: > 100 µM (inactive)
HCC 2998
  GI50: > 100 µM (inactive)
OVCAR-5
  GI50: > 100 µM (inactive)
MOLT-4
  GI50: > 100 µM (inactive)
ACHN
  GI50: > 100 µM (inactive)
KM-20L2
  GI50: > 100 µM (inactive)
HT-29
  GI50: > 100 µM (inactive)
UACC-62
  GI50: > 100 µM (inactive)
A498
  GI50: > 100 µM (inactive)
OVCAR-3
  GI50: > 100 µM (inactive)
OVCAR-4
  GI50: > 100 µM (inactive)
DLD-1
  GI50: > 100 µM (inactive)
SK-MEL-5
  GI50: > 100 µM (inactive)
SF-295
  GI50: > 100 µM (inactive)
EKVX
  GI50: > 100 µM (inactive)
HL-60
  GI50: > 100 µM (inactive)
HOP-92
  GI50: > 100 µM (inactive)
DMS-114
  GI50: > 100 µM (inactive)
RXF 631
  GI50: > 100 µM (inactive)
SNB-19
  GI50: > 100 µM (inactive)
DMS-273
  GI50: > 100 µM (inactive)
RXF 393
  GI50: > 100 µM (inactive)
HCT-116
  GI50: > 100 µM (inactive)
SK-OV-3
  GI50: > 100 µM (inactive)
NCI-H460
  GI50: > 100 µM (inactive)
NCI-H226
  GI50: > 100 µM (inactive)
SNB-75
  GI50: > 100 µM (inactive)
UO-31
  GI50: > 100 µM (inactive)
SW-620
  GI50: > 100 µM (inactive)
A549
  GI50: > 100 µM (inactive)
KM12
  GI50: > 100 µM (inactive)
SF-268
  GI50: > 100 µM (inactive)
LOX IMVI
  GI50: > 100 µM (inactive)
COLO 205
  GI50: > 100 µM (inactive)
LXFL 529
  GI50: > 100 µM (inactive)
M19-MEL
  GI50: > 100 µM (inactive)
Malme-3M
  GI50: > 100 µM (inactive)
CAKI-1
  GI50: > 100 µM (inactive)
M14
  GI50: > 100 µM (inactive)
HOP-18
  GI50: > 100 µM (inactive)
786-0
  GI50: 92.9 µM (inactive)

## CN1CC[C@]2(C)c3cc(O)ccc3CC3CCCC1C32C (stereo partly specified)
CCRF-CEM
  GI50: > 100 µM (inactive)
SF-539
  GI50: > 100 µM (inactive)
SK-MEL-28
  GI50: > 100 µM (inactive)
SNB-78
  GI50: > 100 µM (inactive)
UACC-257
  GI50: > 100 µM (inactive)
K562
  GI50: > 100 µM (inactive)
TK-10
  GI50: > 100 µM (inactive)
HCT-15
  GI50: > 100 µM
IGROV-1
  GI50: > 100 µM (inactive)
NCI-H522
  GI50: > 100 µM (inactive)
NCI-H23
  GI50: > 100 µM (inactive)
SR
  GI50: > 100 µM (inactive)
XF498
  GI50: > 100 µM (inactive)
HCC 2998
  GI50: 47.2 µM (inactive)
OVCAR-5
  GI50: > 100 µM (inactive)
MOLT-4
  GI50: > 100 µM (inactive)
ACHN
  GI50: > 100 µM (inactive)
KM-20L2
  GI50: > 100 µM (inactive)
HT-29
  GI50: > 100 µM (inactive)
UACC-62
  GI50: > 100 µM (inactive)
A498
  GI50: > 100 µM (inactive)
OVCAR-3
  GI50: > 100 µM (inactive)
HOP-62
  GI50: > 100 µM (inactive)
DLD-1
  GI50: > 100 µM (inactive)
SK-MEL-5
  GI50: > 100 µM (inactive)
SF-295
  GI50: > 100 µM (inactive)
EKVX
  GI50: > 100 µM (inactive)
HL-60
  GI50: > 100 µM (inactive)
HOP-92
  GI50: > 100 µM (inactive)
DMS-114
  GI50: > 100 µM (inactive)
RXF 631
  GI50: > 100 µM (inactive)
SNB-19
  GI50: > 100 µM (inactive)
RXF 393
  GI50: > 100 µM (inactive)
HCT-116
  GI50: > 100 µM (inactive)
SK-OV-3
  GI50: > 100 µM (inactive)
NCI-H460
  GI50: > 100 µM (inactive)
NCI-H226
  GI50: > 100 µM (inactive)
SNB-75
  GI50: 92 µM (inactive)
UO-31
  GI50: 89.7 µM (inactive)
SW-620
  GI50: > 100 µM (inactive)
A549
  GI50: > 100 µM (inactive)
KM12
  GI50: > 100 µM (inactive)
SF-268
  GI50: > 100 µM (inactive)
LOX IMVI
  GI50: > 100 µM (inactive)
COLO 205
  GI50: > 100 µM (inactive)
LXFL 529
  GI50: > 100 µM (inactive)
M19-MEL
  GI50: > 100 µM (inactive)
Malme-3M
  GI50: > 100 µM (inactive)
CAKI-1
  GI50: > 100 µM (inactive)
M14
  GI50: > 100 µM (inactive)
HOP-18
  GI50: 26.6 µM (inactive)
OVCAR-8
  GI50: > 100 µM (inactive)
U-251
  GI50: > 100 µM (inactive)
RPMI-8226
  GI50: > 100 µM (inactive)
786-0
  GI50: > 100 µM (inactive)
SN12C
  GI50: > 100 µM (inactive)
